Values joined by “and” are separate entries in the source; they are usually repeats but may differ in a detail not shown here. Equal entries are not always repeated.
How the values were obtained:
[1] = tested on: CCRF-CEM; assay: NCI single dose (10 µM) SRB screen; format: cell-based, human; details: leukaemia, 48 h
[2] = tested on: NCI/ADR-RES; assay: NCI single dose (10 µM) SRB screen; format: cell-based, human; details: ovarian cancer, 48 h
[3] = tested on: Candida albicans; assay: Agar well diffusion method
[4] = tested on: HCT-116; assay: NCI single dose (10 µM) SRB screen; format: cell-based, human; details: colon cancer, 48 h
[5] = tested on: RPMI-8226; assay: NCI single dose (10 µM) SRB screen; format: cell-based, human; details: leukaemia, 48 h
[6] = tested on: T-47D; assay: NCI single dose (10 µM) SRB screen; format: cell-based, human; details: breast cancer, 48 h
[7] = tested on: U251; assay: NCI single dose (10 µM) SRB screen; format: cell-based, human; details: CNS cancer, 48 h
[8] = tested on: OVCAR-5; assay: NCI single dose (10 µM) SRB screen; format: cell-based, human; details: ovarian cancer, 48 h
[9] = tested on: SF-295; assay: NCI single dose (10 µM) SRB screen; format: cell-based, human; details: CNS cancer, 48 h
[10] = tested on: Bacillus subtilis; assay: Agar well diffusion method
[11] = tested on: M14; assay: NCI single dose (10 µM) SRB screen; format: cell-based, human; details: melanoma, 48 h
[12] = tested on: HT29; assay: NCI single dose (10 µM) SRB screen; format: cell-based, human; details: colon cancer, 48 h
[13] = tested on: HOP-62; assay: NCI single dose (10 µM) SRB screen; format: cell-based, human; details: non-small cell lung cancer, 48 h
[14] = tested on: COLO 205; assay: NCI single dose (10 µM) SRB screen; format: cell-based, human; details: colon cancer, 48 h
[15] = tested on: SNB-19; assay: NCI single dose (10 µM) SRB screen; format: cell-based, human; details: CNS cancer, 48 h
[16] = tested on: EKVX; assay: NCI single dose (10 µM) SRB screen; format: cell-based, human; details: non-small cell lung cancer, 48 h
[17] = tested on: NCI-H522; assay: NCI single dose (10 µM) SRB screen; format: cell-based, human; details: non-small cell lung cancer, 48 h
[18] = tested on: NCI-H23; assay: NCI single dose (10 µM) SRB screen; format: cell-based, human; details: non-small cell lung cancer, 48 h
[19] = tested on: Staphylococcus aureus; assay: Agar well diffusion method
[20] = tested on: HS578T; assay: NCI single dose (10 µM) SRB screen; format: cell-based, human; details: breast cancer, 48 h
[21] = tested on: OVCAR-3; assay: NCI single dose (10 µM) SRB screen; format: cell-based, human; details: ovarian cancer, 48 h
[22] = tested on: K-562; assay: NCI single dose (10 µM) SRB screen; format: cell-based, human; details: leukaemia, 48 h
[23] = tested on: PC-3; assay: NCI single dose (10 µM) SRB screen; format: cell-based, human; details: prostate cancer, 48 h
[24] = tested on: NCI-H460; assay: NCI single dose (10 µM) SRB screen; format: cell-based, human; details: non-small cell lung cancer, 48 h
[25] = tested on: DU-145; assay: NCI single dose (10 µM) SRB screen; format: cell-based, human; details: prostate cancer, 48 h
[26] = tested on: SF-268; assay: NCI single dose (10 µM) SRB screen; format: cell-based, human; details: CNS cancer, 48 h
[27] = tested on: SNB-75; assay: NCI single dose (10 µM) SRB screen; format: cell-based, human; details: CNS cancer, 48 h
[28] = tested on: SW-620; assay: NCI single dose (10 µM) SRB screen; format: cell-based, human; details: colon cancer, 48 h
[29] = tested on: SN12C; assay: NCI single dose (10 µM) SRB screen; format: cell-based, human; details: renal cancer, 48 h
[30] = tested on: SK-OV-3; assay: NCI single dose (10 µM) SRB screen; format: cell-based, human; details: ovarian cancer, 48 h
[31] = tested on: SK-MEL-28; assay: NCI single dose (10 µM) SRB screen; format: cell-based, human; details: melanoma, 48 h
[32] = tested on: SK-MEL-5; assay: NCI single dose (10 µM) SRB screen; format: cell-based, human; details: melanoma, 48 h
[33] = tested on: MDA-MB-468; assay: NCI single dose (10 µM) SRB screen; format: cell-based, human; details: breast cancer, 48 h
[34] = tested on: MOLT-4; assay: NCI single dose (10 µM) SRB screen; format: cell-based, human; details: leukaemia, 48 h
[35] = tested on: MALME-3M; assay: NCI single dose (10 µM) SRB screen; format: cell-based, human; details: melanoma, 48 h
[36] = tested on: Pseudomonas aeruginosa; assay: Agar well diffusion method
[37] = tested on: MDA-MB-435; assay: NCI single dose (10 µM) SRB screen; format: cell-based, human; details: melanoma, 48 h
[38] = tested on: SR; assay: NCI single dose (10 µM) SRB screen; format: cell-based, human; details: leukaemia, 48 h
[39] = tested on: Escherichia coli; assay: Agar well diffusion method
[40] = tested on: LOX IMVI; assay: NCI single dose (10 µM) SRB screen; format: cell-based, human; details: melanoma, 48 h
[41] = tested on: NCI 60 cancer cell lines; assay: NCI single dose (10 µM) SRB screen, mean over panel; format: cell-based, human; details: mean over 60 cell lines, 48 h
[42] = tested on: KM12; assay: NCI single dose (10 µM) SRB screen; format: cell-based, human; details: colon cancer, 48 h
[43] = tested on: MDA-MB-231; assay: NCI single dose (10 µM) SRB screen; format: cell-based, human; details: breast cancer, 48 h
[44] = tested on: SK-MEL-2; assay: NCI single dose (10 µM) SRB screen; format: cell-based, human; details: melanoma, 48 h
[45] = tested on: HCC-2998; assay: NCI single dose (10 µM) SRB screen; format: cell-based, human; details: colon cancer, 48 h
[46] = tested on: IGROV1; assay: NCI single dose (10 µM) SRB screen; format: cell-based, human; details: ovarian cancer, 48 h
[47] = tested on: TK-10; assay: NCI single dose (10 µM) SRB screen; format: cell-based, human; details: renal cancer, 48 h
[48] = tested on: NCI-H226; assay: NCI single dose (10 µM) SRB screen; format: cell-based, human; details: non-small cell lung cancer, 48 h
[49] = tested on: HOP-92; assay: NCI single dose (10 µM) SRB screen; format: cell-based, human; details: non-small cell lung cancer, 48 h
[50] = tested on: 786-0; assay: NCI single dose (10 µM) SRB screen; format: cell-based, human; details: renal cancer, 48 h
[51] = tested on: HCT-15; assay: NCI single dose (10 µM) SRB screen; format: cell-based, human; details: colon cancer, 48 h

COCCOC(=O)C1=C(C)NC(C)=C(C(=O)OCCOC)C1c1cccc(C#N)c1 [Compound 1f, Di(2-methoxyethyl) 4-(3-cyanophenyl)-2,6-dimethyl-1,4-dihydropyridine-3,5-dicarboxylate]
GI% CCRF-CEM [1]: – (Only GI% ≥ 10 are shown)
GI% NCI/ADR-RES [2]: – (Only GI% ≥ 10 are shown)
zone of inhibition at 1000 µg/mL ([3]; Candida albicans, 24 h, read-out: Diameter of inhibition zone, C. albicans): 18 mm
% activity index, C. albicans ([3]; relative to clotrimazole): 66.7%
GI% HCT-116 [4]: – (Only GI% ≥ 10 are shown)
GI% RPMI-8226 [5]: – (Only GI% ≥ 10 are shown)
GI% T-47D [6]: – (Only GI% ≥ 10 are shown)
GI% U251 [7]: – (Only GI% ≥ 10 are shown)
GI% OVCAR-5 [8]: – (Only GI% ≥ 10 are shown)
GI% SF-295 [9]: – (Only GI% ≥ 10 are shown)
zone of inhibition at 1000 µg/mL ([10]; Bacillus subtilis, 24 h, read-out: Diameter of inhibition zone, B. subtilis): 16 mm
% activity index, B. subtilis ([10]; relative to ciprofloxacin): 69.6%
GI% M14 [11]: – (Only GI% ≥ 10 are shown)
GI% HT29 [12]: – (Only GI% ≥ 10 are shown)
GI% HOP-62 [13]: – (Only GI% ≥ 10 are shown)
GI% COLO 205 [14]: – (Only GI% ≥ 10 are shown)
GI% SNB-19 [15]: – (Only GI% ≥ 10 are shown)
GI% EKVX [16]: – (Only GI% ≥ 10 are shown)
GI% NCI-H522 [17]: – (Only GI% ≥ 10 are shown)
GI% NCI-H23 [18]: – (Only GI% ≥ 10 are shown)
zone of inhibition at 1000 µg/mL ([19]; Staphylococcus aureus, 24 h, read-out: Diameter of inhibition zone, S. aureus): 19 mm
% activity index, S. aureus ([19]; relative to ciprofloxacin): 79% and 79.2%
GI% HS578T [20]: – (Only GI% ≥ 10 are shown)
GI% OVCAR-3 [21]: – (Only GI% ≥ 10 are shown)
GI% K-562 [22]: – (Only GI% ≥ 10 are shown)
GI% PC-3 [23]: – (Only GI% ≥ 10 are shown)
GI% NCI-H460 [24]: – (Only GI% ≥ 10 are shown)
GI% DU-145 [25]: – (Only GI% ≥ 10 are shown)
GI% SF-268 [26]: – (Only GI% ≥ 10 are shown)
GI% SNB-75 [27]: 14%
GI% SW-620 [28]: – (Only GI% ≥ 10 are shown)
GI% SN12C [29]: – (Only GI% ≥ 10 are shown)
GI% SK-OV-3 [30]: – (Only GI% ≥ 10 are shown)
GI% SK-MEL-28 [31]: – (Only GI% ≥ 10 are shown)
GI% SK-MEL-5 [32]: – (Only GI% ≥ 10 are shown)
GI% MDA-MB-468 [33]: 13%
GI% MOLT-4 [34]: – (Only GI% ≥ 10 are shown)
GI% MALME-3M [35]: – (Only GI% ≥ 10 are shown)
zone of inhibition at 1000 µg/mL ([36]; Pseudomonas aeruginosa, 24 h, read-out: Diameter of inhibition zone, P. aeruginosa): 17 mm
% activity index, P. aeruginosa ([36]; relative to ciprofloxacin): 73.9%
GI% MDA-MB-435 [37]: – (Only GI% ≥ 10 are shown)
GI% SR [38]: – (Only GI% ≥ 10 are shown)
zone of inhibition at 1000 µg/mL ([39]; Escherichia coli, 24 h, read-out: Diameter of inhibition zone, E. coli): 13 mm
% activity index, E. coli ([39]; relative to ciprofloxacin): 50%
GI% LOX IMVI [40]: – (Only GI% ≥ 10 are shown)
Mean GI% [41]: −1%
GI% KM12 [42]: – (Only GI% ≥ 10 are shown)
GI% MDA-MB-231 [43]: – (Only GI% ≥ 10 are shown)
GI% SK-MEL-2 [44]: – (Only GI% ≥ 10 are shown)
GI% HCC-2998 [45]: – (Only GI% ≥ 10 are shown)
GI% IGROV1 [46]: – (Only GI% ≥ 10 are shown)
GI% TK-10 [47]: – (Only GI% ≥ 10 are shown)
GI% NCI-H226 [48]: – (Only GI% ≥ 10 are shown)
GI% HOP-92 [49]: – (Only GI% ≥ 10 are shown)
GI% 786-0 [50]: – (Only GI% ≥ 10 are shown)
GI% HCT-15 [51]: – (Only GI% ≥ 10 are shown)

Source: publication PMC9481151, “Discovery of new symmetrical and asymmetrical nitrile-containing 1,4-dihydropyridine derivatives as dual kinases and P-glycoprotein inhibitors: synthesis, in vitro assays, and in silico studies” (Journal of Enzyme Inhibition and Medicinal Chemistry, 2022)
